Source: patent US4985440A, “Hypolipidaemic imidazol-2-yl-derivatives of bicyclic compounds” (priority 1988, dated 1991)

What was measured:
[1] = Serum lipid lowering in male rats on standard diet (Table 1, activity as % variation vs. controls); type: in vivo, Iva:SDIV (SPF) male rats; details: rat, 50 mg/kg/os, 4 days by stomach tube, * p ≤ 0.05, ** p ≤ 0.01; for Triglycerides, activity as % variation vs. controls: serum triglycerides; for Tot. Chol., activity as % variation vs. controls: total serum cholesterol
Protocol: The activity of compounds of this invention was evaluated on Groups of Iva:SDIV (SPF) male rats fed standard diet (Altromin^R).
The compounds were suspended in "Methocel" (methyl cellulose, a 0.5% pseudosolution in water) and administered by stomach tube for 4 days.
Groups of animals were treated with the suspending agent only (control groups).
The total serum cholesterol was determined with the method of Allain C. C. (Clin. Chem. 20, 470, 1974).
The serum triglycerides were determined with the method of Spayd R. N. (Clin. Chem. 24, 1343, 1978).
The total serum HDL cholesterol was determined according to Demacker P. N. M. [Clin. Chem., 23, 1238 (1977)].
W. - J. Amer. Stat. Ass., 50, 1096 (1955)].

ACAT = details: rabbit arterial microsomes; Hudson H., Day A., Atherosclerosis (1982) 45, 109; cited from earlier work
[2] = molecular target: T1, acyl CoA: cholesterol acyltransferase (ACAT-EC 2.3.1.26) (Oryctolagus cuniculus, UniProt A0A5F9CPP4); test: ACAT inhibition in microsomes from atherosclerotic rabbit thoracic aortas (Table 2); type: biochemical
T1 construct: microsomal preparations from atherosclerotic rabbit thoracic aorta (intimamedia); from tissue; host or cells: microsomes of atherosclerotic rabbit thoracic aorta (intima-media)
T1 sequence (A0A5F9CPP4 1-555): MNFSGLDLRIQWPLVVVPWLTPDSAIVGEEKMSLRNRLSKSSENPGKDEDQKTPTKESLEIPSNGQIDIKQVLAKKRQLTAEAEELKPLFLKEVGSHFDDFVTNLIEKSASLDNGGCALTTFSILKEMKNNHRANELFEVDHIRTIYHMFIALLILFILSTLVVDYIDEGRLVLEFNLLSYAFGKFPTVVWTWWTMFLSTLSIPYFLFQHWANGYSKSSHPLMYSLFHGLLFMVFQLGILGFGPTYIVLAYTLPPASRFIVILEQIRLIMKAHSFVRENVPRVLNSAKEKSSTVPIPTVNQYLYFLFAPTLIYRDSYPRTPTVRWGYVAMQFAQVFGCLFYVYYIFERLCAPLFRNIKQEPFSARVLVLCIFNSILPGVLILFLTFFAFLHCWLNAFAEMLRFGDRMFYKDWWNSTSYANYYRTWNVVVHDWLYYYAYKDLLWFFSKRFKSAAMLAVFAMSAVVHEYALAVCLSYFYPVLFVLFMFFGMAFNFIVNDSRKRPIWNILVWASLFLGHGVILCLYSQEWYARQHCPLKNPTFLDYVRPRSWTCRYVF

IC50 ([2]; microsomes from atherosclerotic rabbit thoracic aortas (intimamedia), limits p = 0.95) | potency in ACAT inhibition relative to Bezafibrate (times more potent) ([2]; ratio of IC50 values, vs. Bezafibrate) | Structure (SMILES) | HDL/LDL + VLDL Chol. ratio, activity as % variation vs. controls [1] | LDL + VLDL Chol., activity as % variation vs. controls [1] | Triglycerides, activity as % variation vs. controls [1] | Tot. Chol., activity as % variation vs. controls [1] | inhibitory activity in vitro (in words) (ACAT)
 |  | CCOC(=O)C(C)(C)Oc1ccc(Cl)cc1 [Clofibrate, reference compound] | +18% | -19% | -22% | -11% | 
 |  | CCOC(=O)C(C)(C)CCCOc1ccc2c(c1)C=C(c1nccn1C)CC2 [FCE 25390, ethyl 5-[5,6-dihydro-7-(1-methyl-1H-imidazol-2-yl)naphthalen-2yl]oxy-2,2-dimethylpentanoate] | +96% | -59% | -58% | -36% | 
 |  | CC(C)(Oc1ccc(CCNC(=O)c2ccc(Cl)cc2)cc1)C(=O)O [Bezafibrate] |  |  |  |  | inhibitory activity in vitro (rabbit arterial microsomes) has been already demonstrated
1060 nM | about 500 times | CCCC1Oc2ccc(OCCCC(C)(C)C(=O)OCC)cc2C=C1c1nccn1C (stereo not drawn) [FCE 25184, ethyl 5-[3-(1-methyl-1H-imidazol-2-yl)-2-n-propyl-2H-1-benzopyran-6-yl]oxy-2,2-dimethylpentanoate] |  |  |  |  | 
 |  | CCOC(=O)C(C)(C)CCCOc1ccc2c(c1)C=C(c1nccn1C)C(C)O2 (stereo not drawn) [FCE 25086, ethyl 5-[2-methyl-3-(1-methyl-1H-imidazol-2-yl)-2H-1-benzopyran-6yl]oxy-2,2-dimethylpentanoate] | +135% | -55% | -53% | -14% | 
